Source: patent US20140341916A1, “THERAPEUTIC COMBINATIONS AND METHODS OF TREATING MELANOMA” (Genentech, Inc., priority 2011, published 2014)

Experiments:
[1] = test system: A2058 melanoma xenograft; experiment: In vivo efficacy, subcutaneous melanoma xenograft, tumor volume / % TGI; design: species or system mice; settings: for % TGI Single Agent BRAFi vs. control: A2058
Protocol: Next, efficacy studies were performed using the melanoma cells lines in the xenografts mouse models described above. All studies were conducted in accordance with the Guide for the Care and Use of Laboratory Animals (Ref: Institute of Laboratory Animal Resources (NIH publication no. 85-23), Washington, D.C.: National Academies Press; 1996). 10- to 14-week-old female CRL Nu/Nu or NCr nude mice from Charles River Laboratories were inoculated subcutaneously in the dorsal right flank with either 5×10^6 UACC-257X2.2 cells in HBSS with Matrigel or 5×10^6 A2058 cells in HBSS with Matrigel. When tumor volumes reached approximately 200 mm^3 (day 0), animals were randomized into groups of 10 each.
For single agent efficacy studies, the anti-ETBR ADC candidate Hu5E9v1-ADC was administered as a single intravenous (IV) injection on day 0 at 1 mpk, 3 mpk, or 6 mpk (mg/kg). A control ADC antibody and vehicle control were also administered. Average tumor volumes with standard deviations were determined from 10 animals per group. Tumor volumes were measured twice per week until study end.
The average tumor volumes were determined from 10 animals per group. Tumor volumes were measured twice per week until study end. Tumor volumes were measured in two dimensions (length and width) using UltraCal IV calipers (Model 54 10 111, Fred V. Fowler Company; Newton, Mass.). The following formula was used with Excel, version 12.2.8 (Microsoft; Redmond, Wash.) to calculate tumor volume: Tumor Volume (mm3)=[…]
To analyze the repeated measurement of tumor volumes from the same animals over time, a mixed-modeling Linear Mixed Effects (LME) approach was used (Pinheiro et al. 2009). This approach can address both repeated measurements and a modest drop-out rate due to non-treatment-related termination of animals prior to study end. Cubic regression splines were used to fit a non-linear profile to the time courses of log 2 tumor volume at each dose level. These non-linear profiles were then related to dose within the mixed model. Tumor growth inhibition (TGI) as a percentage of vehicle was calculated as percent area under the fitted curve (AUC) per day in relation to the vehicle, using the following formula:
Using this formula, a TGI value of 100% indicates tumor stasis, of >1% but <100% indicates tumor growth delay, and of >100% indicates tumor regression. To get uncertainty intervals (UIs) for % TGI, the fitted curve and the fitted covariance matrix were used to generate a random sample as an approximation to the distribution of % TGI. The random sample is composed of 1000 simulated realizations of the fitted-mixed model, where the % TGI has been recalculated for each realization. Here, in the reported UI is the value for which 95% of the time, the recalculated values of % TGI will fall in this region given the fitted model. The 2.5 and 97.5 percentiles of the simulated distribution were used as the […] UIs.
Tumors were grown to an average size of approximately 200 mm^3, whereupon animals were randomized into groups of 10 each. […] A single dose of Hu5E9v1-ADC at either 3 mpk or 6 mpk or control, a histidine buffer #8, was administered intraveneously into the tail vein on day 1 (after three doses of RG7204).
To do this, the in vivo efficacy for various combinations of Hu5E9v1-ADC and MEKi-623 and/or MEKi-973 were evaluated against A2058 and SK-MEL-23 and IPC-298 melanoma in vivo models, performed as described above in Example 4. An appropriate methylcellulose tween vehicle control (0.5% methylcellulose, 0.2% Tween-80 (MCT) or MEK inhibitor at doses of 1 mpk, 3 mpk or 7.5 mpk were administered orally once a day×21 days beginning on study Day 0. A single 3 mpk or 6 mpk dose of Hu5E9v1-ADC or control, a histidine buffer #8, was administered intraveneously (after two doses of a MEK inhibitor) via tail vein at study Day 1.

[2] = test system: ETBR surface protein; experiment: Surface ETBR protein in live melanoma cells, FACS; assay type: cell-based, human; settings: 24 h
Protocol: Melanoma cell lines UACC-257X2.2, A2058, COLO 829, IPC-298 (ATCC) were treated with a BRAF inhibitor drug (“BRAFi”), specifically RG7204 at varying concentrations by adding the appropriate drug volume to cells in culture for 24 h on four-well dishes.
(§1) To determine whether the observed increases in total ETBR protein level due to BRAFi treatment also results in an increase of ETBR surface protein levels, a fluorescence-activated cell sorting (FACS) analysis was performed. Cells were harvested in PBS with 2.5 mmol/L EDTA and washed in PBS buffer containing 1% FBS. All subsequent steps were carried out at 4° C. Cells were incubated for 1 hour with 3 μg/mL anti ETBR antibody Hu5E9v1, followed by anti-human IgG fluorescent detection reagent (A11013; Invitrogen). Cells were then analyzed with a FACS Calibur flow cytometer (BD Biosciences). The results for UACC-257X2.2 are shown in FIG. 4C, the results for A2058 are shown in FIG. 8C, and the results for COLO 829 are shown in FIG. 6C.
Melanoma cell lines A2058, COLO 829, SK23-MEL and IPC-298 (ATCC) were treated with a MEK inhibitor drug (“MEKi-973” or “MEKi-623”), at varying concentrations (0 μM, 0.01 μM, 0.1 μM or 1 μM) by adding the appropriate drug volume to cells in culture for 24 h on four-well dishes.
as §1, with “MEKi” for “BRAFi”, “performed as described above.” for “performed.”, “Biosciences).” for “Biosciences). The results for UACC-257X2.2 are shown in FIG. 4C, the results for A2058 are shown in FIG. 8C, and the results for COLO 829 are shown in FIG. 6C.”

Compound: CCCS(=O)(=O)Nc1ccc(F)c(C(=O)c2c[nH]c3ncc(-c4ccc(Cl)cc4)cc23)c1F [RG7204, propane-1-sulfonic acid {3-[5-(4-chlorophenyl)-1H-pyrrolo[2,3-b]pyridine-3-carbonyl]-2,4-difluoro-phenyl}-amide]
- single agent efficacy ([1]; 10 mg/kg RG7204 alone, orally twice a day 21 days): did not show single agent efficacy
- % TGI Single Agent BRAFi vs. control ([1]; BRAFi Qdx21 10 mg/kg): 13%
- % TGI Single Agent BRAFi vs. control ([1]; BRAFi Qdx21 30 mg/kg): 38%
- surface level of ETBR protein vs untreated control cells ([2]; A2058 cells): appears to increase the surface levels of ETBR protein
- surface level of ETBR protein vs untreated control cells ([2]; COLO 829 cells): appears to increase the surface levels of ETBR protein
- surface level of ETBR protein vs untreated control cells ([2]; IPC-298 cells): appears to reduce ETBR levels
- surface level of ETBR protein vs untreated control cells ([2]; UACC-257X2.2 cells): appears to increase the surface levels of ETBR protein
